The test system of this assay is Plasmodium berghei. Description: Luciferase/luciferin-expressing antifolate-resistant parasites were used to infect a culture of HepG2 cells that were pre-incubated with compounds. Infected hepatocytes emit light due to the luciferase reaction. Assay results are presented as the percent inhibition of light emission compared to control. […]. It is filed as functional. The following applies: sporozoite; for IC90: read-out: LUCIFERASE INFECTION ASSAY - IC90.

Where [1] appears, read: read-out: LUCIFERASE INFECTION ASSAY - IC50.

`O=C1Nc2cc(Cl)ccc2/C1=C\c1nn(Cc2ccccc2)cc1-c1cccnc1`: the IC90 was more than 10 µM. Besides, the IC50 (FFLUC_HILL_SLOPE 16.7, FFLUC_R_SQUARED 0.641, read-out: LUCIFERASE INFECTION ASSAY - IC50) was more than 10 µM.

Consider `CCOC(=O)c1c(S(=O)(=O)N2CCN(c3ncccc3C(F)(F)F)CC2)c(-c2ccccc2)n(-c2ccccc2)c1C`, for which the IC90 is more than 5.51 µM. For the same compound, for the setting “FFLUC_HILL_SLOPE 0.343, FFLUC_R_SQUARED 0.352, PBLUC_HILL_SLOPE 1.97, PBLUC_R_SQUARED 0.72, read-out: LUCIFERASE INFECTION ASSAY - IC50”, the IC50 was more than 5.51 µM.

Turning to `Cc1cc(NC(=O)CCc2c(-c3ccc(F)cc3)[nH]c3ccc(F)cc23)no1`, the IC90 is more than 10 µM. Under setting [1], the IC50 was more than 10 µM.

On to `CN(CC(=O)Nc1ccc(Cl)c(C(F)(F)F)c1)CC(=O)Nc1ccc(Cl)cn1`, for which the IC90 is more than 10 µM. Moreover, the IC50 under setting [1] is more than 10 µM.

In the case of `CC(C)c1nc2ccccc2n1Cc1cccc2ccccc12`, the IC90 is 4.17 µM. Under “HEPG2TOX_HILL_SLOPE 2.18, HEPG2TOX_R_SQUARED 0.953, PBLUC_HILL_SLOPE 14.4, PBLUC_R_SQUARED 0.432, read-out: LUCIFERASE INFECTION ASSAY - IC50”, the IC50 was 3.58 µM.

Consider `COc1ccc(CNC(=O)N2CCc3nc(NCc4cccc(Oc5ccccc5)c4)ncc3C2)cc1`, for which the IC90 is more than 6.66 µM. For the same compound, the IC50 under setting [1] is more than 6.66 µM.

Regarding `O=C(c1cccs1)N1CCN(C2c3ccccc3-c3ccccc32)CC1`, the IC90 was more than 9.15 µM. For the same compound, the IC50 (PBLUC_HILL_SLOPE 11.4, PBLUC_R_SQUARED 0.0886, read-out: LUCIFERASE INFECTION ASSAY - IC50) was more than 9.15 µM.

Take `CCCCN(C)S(=O)(=O)c1ccc(NC(=O)c2cccc(C(F)(F)F)c2)cc1`: the IC90 is more than 10 µM. For the same compound, the IC50 (PBLUC_HILL_SLOPE 3.75, PBLUC_R_SQUARED 0.618, read-out: LUCIFERASE INFECTION ASSAY - IC50) was found to be 5.87 µM.

Consider `O=C(N/N=C/c1cc(Cl)ccc1O)N/N=C/c1cc(Cl)ccc1O`, for which the IC90 was more than 8.99 µM. Besides, the IC50 (HEPG2TOX_HILL_SLOPE 7.47, HEPG2TOX_R_SQUARED 0.53, read-out: LUCIFERASE INFECTION ASSAY - IC50) was more than 8.99 µM.

With `O=C(Nc1ccccc1Cc1ccccc1)c1ccccc1NS(=O)(=O)c1ccc(Cl)s1`, the IC90 stood at 3.48 µM. The IC50 (FFLUC_HILL_SLOPE 7.32, FFLUC_R_SQUARED 0.665, HEPG2TOX_HILL_SLOPE 2.07, HEPG2TOX_R_SQUARED 0.984, PBLUC_HILL_SLOPE 54.5, PBLUC_R_SQUARED 0.445, read-out: LUCIFERASE INFECTION ASSAY - IC50) came to 3.34 µM.

On to `Cc1cc(C)n(-c2ccc3c(Cl)cc(Cl)c(O)c3n2)n1`, for which the IC90 came out at 0.393 µM. Besides, the IC50 (HEPG2TOX_HILL_SLOPE 0.646, HEPG2TOX_R_SQUARED 0.957, PBLUC_HILL_SLOPE 194, PBLUC_R_SQUARED 0.635, read-out: LUCIFERASE INFECTION ASSAY - IC50) amounted to 0.388 µM.

As to `O=C(/C=C/c1ccc(-n2cncn2)c(F)c1)c1cccc(OC(F)F)c1`, the IC90 amounted to 5.45 µM. Moreover, the IC50 (FFLUC_HILL_SLOPE 115, FFLUC_R_SQUARED 0.0591, PBLUC_HILL_SLOPE 174, PBLUC_R_SQUARED 0.383, read-out: LUCIFERASE INFECTION ASSAY - IC50) amounted to 5.39 µM.

On to `Cc1noc(C)c1CSc1nc(C(C)(C)C)nc2c1c(=O)n(C)c(=O)n2C`, for which the IC90 was more than 10 µM. Under setting [1], the IC50 is more than 10 µM.

Take `Cc1cccc(C(=O)NCC(=O)Nc2ncc(C)s2)c1`: the IC90 is more than 10 µM. Where the note is “HEPG2TOX_HILL_SLOPE 123, HEPG2TOX_R_SQUARED 0.298, PBLUC_HILL_SLOPE 16, PBLUC_R_SQUARED 0.209, read-out: LUCIFERASE INFECTION ASSAY - IC50”, the IC50 stood at 9.16 µM.

Consider `COc1cccc(N2C(C)=CC(=C(C#N)c3nc4ccccc4s3)C=C2C)c1`, for which the IC90 was more than 10 µM. In addition, the 50% inhibitory concentration (IC50) (FFLUC_HILL_SLOPE 12.5, FFLUC_R_SQUARED 0.607, HEPG2TOX_HILL_SLOPE 3.97, HEPG2TOX_R_SQUARED 0.941, PBLUC_HILL_SLOPE 8.86, PBLUC_R_SQUARED 0.0114, read-out: LUCIFERASE INFECTION ASSAY - IC50) was more than 10 µM.

On to `O=C(NCC(c1ccco1)N1CCCC1)c1ccc(Cl)c(S(=O)(=O)N2CCc3ccccc32)c1` (stereo not given), for which the IC90 is more than 10 µM. Also, the IC50 (FFLUC_HILL_SLOPE 10.9, FFLUC_R_SQUARED 0.158, HEPG2TOX_HILL_SLOPE 3.24, HEPG2TOX_R_SQUARED 0.613, PBLUC_HILL_SLOPE 5.35, PBLUC_R_SQUARED 0.563, read-out: LUCIFERASE INFECTION ASSAY - IC50) is 7.08 µM.

For `Cc1nc(SCc2cccc(C(F)(F)F)c2)c2c(-c3cccs3)csc2n1`, the IC90 was more than 10 µM. The IC50 (FFLUC_HILL_SLOPE 83.3, FFLUC_R_SQUARED 0.372, read-out: LUCIFERASE INFECTION ASSAY - IC50) is more than 10 µM.

Consider `COc1ccc2c(C)cc3nnc(SCC(=O)NCC45CC6CC(CC(C6)C4)C5)n3c2c1`, for which the IC90 was more than 10 µM. For the same compound, under “HEPG2TOX_HILL_SLOPE 7.95, HEPG2TOX_R_SQUARED 0.512, PBLUC_HILL_SLOPE 13.7, PBLUC_R_SQUARED 0.353, read-out: LUCIFERASE INFECTION ASSAY - IC50”, the IC50 turned out to be 8.94 µM.

On to `C=C(C)CSc1nc2cc(-c3ccc(C)cc3)sc2c(=O)n1Cc1ccccc1`, for which the IC90 is more than 10 µM. Further, under “FFLUC_HILL_SLOPE 3.73, FFLUC_R_SQUARED 0.533, read-out: LUCIFERASE INFECTION ASSAY - IC50”, the IC50 is more than 10 µM.

`Cc1ccc(/C=N/Nc2nn3c(=O)c4ccccc4nc3c3ccccc23)o1`: the IC90 is 8.5 µM. Besides, the IC50 (HEPG2TOX_HILL_SLOPE 9.29, HEPG2TOX_R_SQUARED 0.957, PBLUC_HILL_SLOPE 5.5, PBLUC_R_SQUARED 0.698, read-out: LUCIFERASE INFECTION ASSAY - IC50) turned out to be 5.7 µM.

As to `N=C(NOC(=O)c1cnn(-c2ccccc2)c1C(F)(F)F)c1ccc(Cl)cc1`, the IC90 was more than 8.07 µM. For the same compound, the IC50 under setting [1] stood at 1.06 µM.

Take `COc1ccc(-c2csc3nc(-c4cccnc4)nc(NCCN4CCOCC4)c23)cc1OC`: the IC90 is more than 10 µM. Also, where the note is “PBLUC_HILL_SLOPE 9.41, PBLUC_R_SQUARED 0.036, read-out: LUCIFERASE INFECTION ASSAY - IC50”, the IC50 amounted to 9.3 µM.

In the case of `CCN(CC)CCn1c(NC(=O)c2cc(C(C)=O)c[nH]2)nc2ccccc21`, the IC90 was more than 10 µM. Also, the IC50 under setting [1] came to 1.82 µM.

With `CC(C)c1ccc(CN2CCC2(C)C(=O)Nc2cnc3ccccc3c2)cc1` (stereo not given), the IC90 came out at 3.79 µM. Moreover, where the note is “PBLUC_HILL_SLOPE 15.4, PBLUC_R_SQUARED 0.671, read-out: LUCIFERASE INFECTION ASSAY - IC50”, the concentration for half-maximal inhibition (IC50) amounted to 3.29 µM.

As to `CC(C)Cn1c(-c2cc([N+](=O)[O-])ccc2Cl)nc2c1c(=O)[nH]c(=O)n2Cc1ccccc1`, the IC90 was more than 10 µM. The IC50 under setting [1] was more than 10 µM.

For the compound `CC(Nc1ccc(C(N)=O)cc1[N+](=O)[O-])C12CC3CC(CC(C3)C1)C2` (stereo not given), the IC90 is more than 10 µM. Under setting [1], the IC50 is 5.52 µM.

As to `COc1ccc(-c2cnc3cnc(-c4ccc5c(c4)OCO5)cn23)cc1`, the IC90 turned out to be 4.64 µM. The IC50 under setting [1] amounted to 1.78 µM.

For the compound `CN(C)CCNc1ccnc2c(-c3ccccc3Oc3ccccc3)cnn12`, the IC90 was more than 8.84 µM. Besides, the IC50 (PBLUC_HILL_SLOPE 1.31, PBLUC_R_SQUARED 0.651, read-out: LUCIFERASE INFECTION ASSAY - IC50) was 5.14 µM.

As to `Cc1c(C)n(CCCO)c2ncn3nc(COc4ccccc4)nc3c12`, the IC90 is 0.36 µM. In addition, under “FFLUC_HILL_SLOPE 0.782, FFLUC_R_SQUARED 0.957, PBLUC_HILL_SLOPE 0.808, PBLUC_R_SQUARED 0.882, read-out: LUCIFERASE INFECTION ASSAY - IC50”, the IC50 stood at 0.0238 µM.

Turning to `O=C(Nc1nc(-c2ccc3c(c2)CCC3)cs1)c1ccc(CSc2nnc[nH]2)cc1`, the IC90 is more than 10 µM. Further, for the setting “HEPG2TOX_HILL_SLOPE 14.2, HEPG2TOX_R_SQUARED 0.936, PBLUC_HILL_SLOPE 3.67, PBLUC_R_SQUARED 0.0328, read-out: LUCIFERASE INFECTION ASSAY - IC50”, the IC50 was found to be 6.58 µM.

For `NC(=O)C1CCN(c2nc(-c3ccc(Cl)cc3)nc3sc4c(c23)CCC4)CC1`, the IC90 came to 3.79 µM. The IC50 (FFLUC_HILL_SLOPE 3.15, FFLUC_R_SQUARED 0.774, HEPG2TOX_HILL_SLOPE 6.41, HEPG2TOX_R_SQUARED 0.32, PBLUC_HILL_SLOPE 20.1, PBLUC_R_SQUARED 0.486, read-out: LUCIFERASE INFECTION ASSAY - IC50) came out at 3.4 µM.

In the case of `CCOC(=O)NC1=C/C(=N\S(=O)(=O)c2ccc(C)cc2)c2ccccc2C1=O`, the IC90 is more than 10 µM. Also, the IC50 (HEPG2TOX_HILL_SLOPE 8.17, HEPG2TOX_R_SQUARED 0.938, PBLUC_HILL_SLOPE 4.13, PBLUC_R_SQUARED 0.0669, read-out: LUCIFERASE INFECTION ASSAY - IC50) is more than 10 µM.

For `CC(OC(=O)c1ccc2ncsc2c1)C(=O)N1CCCC1` (stereo not given), the IC90 was more than 10 µM. Moreover, the IC50 under setting [1] was more than 10 µM.

On to `Cc1ccc(-c2nn(-c3ncc(Cl)cc3Cl)c(=O)c3ccccc23)cc1`, for which the IC90 was more than 10 µM. Also, the IC50 (HEPG2TOX_HILL_SLOPE 2.58, HEPG2TOX_R_SQUARED 0.712, read-out: LUCIFERASE INFECTION ASSAY - IC50) was more than 10 µM.

For the compound `CCc1cc(Cl)n2nc(C(=O)OC)nc2n1`, the IC90 was more than 10 µM. The IC50 under setting [1] was more than 10 µM.

What is called IC50 is the concentration that inhibits the measured activity by half. Broadly, the IC90 is the concentration at which the effect reaches the 90% level.
